Assay results published in patent publication US20230088644A1, “COMPOSITION FOR INDUCING DIFFERENTIATION INTO INSULIN-PRODUCING CELLS, AND USE THEREOF” (SEOUL NATIONAL UNIVERSITY R&DB FOUNDATION, priority 2020, published 2023).
Read-outs that look alike come from different tables or passages of the source.

Columns and labels:
[1] = test system: umbilical cord blood cells; experiment: Insulin secretion of differentiated umbilical cord blood cells, insulin ELISA; settings: BP-1-102 added on day 4; primed 6 days, then 3 days in CMRL1066 with 11 mM glucose; supernatant ELISA
[2] = test system: human umbilical cord blood cells; assay type: cell-based
Protocol: Umbilical cord blood-derived mononuclear cells were freshly isolated using Ficoll-gradient protocol and suspended in a lysis solution (BD Pharmingen) to remove red blood cells.
Differentiation was induced by treating (priming) with putrescine in the same manner as in the method of Example 1.2, except that putrescine was added to a concentration of 1 mM or 5 mM, and the gene expression levels for insulin (INS) and factors (MAFA, NEUROG3) that promote the differentiation into insulin-producing beta cells were measured by performing quantitative real time PCR in the same manner as in the method of Example 1.2.
(§1) Samples were divided into (1) putrescine alone-treated group (5 mM), (2) putrescine (5 mM) and glucosamine (5 mM)-co-treated group, (3) putrescine (5 mM), glucosamine (5 mM), and nicotinamide (10 mM)-co-treated group, and (4) control (non-treated group). Umbilical cord blood cells (prepared in the same manner as in Example 1.3) and mouse bone marrow cells (prepared in the same manner as in Example 1.1) were cultured in suspension to induce the differentiation into insulin-producing cells.
(§2) On day 6 after priming the umbilical cord blood cells or mouse bone marrow cells for differentiation, total RNA was extracted to perform quantitative real-time PCR, similarly to the method of Example 1.2, and the mRNA expression of insulin and beta cell differentiation-related genes (MAFA, PDX1, or NEUROG3) was determined, as shown in FIGS. 4 (in primed umbilical cord blood cells) and 5 (in primed mouse bone marrow cells).
Umbilical cord blood cells were isolated in the same manner as in Example 1.3, and the differentiation effect on culture medium was determined. […] On day 6 after the culture, the expression levels of genes were compared in the cells in which differentiation was induced in the DMEM or CMRL1066 culture medium, respectively, using RT-PCR and quantitative real-time PCR. The conditions for quantitative real-time PCR were the same as in Example 1.2, and RT-PCR was performed with the following steps; 1) initial denaturation of 94° C. for 5 minutes; 2) amplification of 94° C. for 30 seconds, 60° C. for 30 seconds, and 72° C. for 1 minute by repeating the cycle 30 times; 3) final extension of 72° C. for 10 minutes.
Cells were collected on day 6 after the culture to confirm the appearance of insulin-producing cells.

mouse bone marrow cells = experiment: Differentiation of mouse bone marrow cells into insulin-producing cells, RT-PCR / quantitative real-time PCR; assay type: cell-based; settings: for insulin expression compared to the control: 10 mM each, 6 days, DMEM
Protocol: Mouse bone marrow cells were isolated from 8-week-old male C57BL/6 mice (Orientbio Inc.) in the same manner as in Example 1.1. Bone marrow cells in DMEM culture medium (Dulbecco's Modified Eagle's Medium) (standard medium) containing 5.5 mM glucose, 10% FBS, and 1% antibiotics were seeded at 5×10^6 cells/ml into a 12-well non-coated plate, treated with glucosamine (GlcN) and putrescine (Put) to a concentration of 10 mM each or together, and cultured for 6 days in suspension for differentiation.
To investigate whether or not insulin-producing cells appeared, the gene expression levels of insulin (INS), MAFA, PDX-1, and NEUROG3 were measured by a quantitative real-time PCR method, as in the method of Example 1.2, which are shown in FIG. 3.
as §1, §2

human bone marrow cells = settings: 5 mM putrescine, 6 days, DMEM; compared to control without putrescine
[3] = added to 5 mM putrescine, 5 mM glucosamine, 10 mM nicotinamide in CMRL1066, JSI-124 0.1 μM, CPT 1 μM, BP-1-102 10 μM, day 6

CN(CC(=O)N(Cc1ccc(C2CCCCC2)cc1)c1ccc(C(=O)O)c(O)c1)S(=O)(=O)c1c(F)c(F)c(F)c(F)c1F [BP-1-102]
insulin secretion compared to only three differentiation-inducing factors (glucosamine, putrescine, and nicotinamide) [1]: ≥ 10 fold
mRNA expression levels of insulin and beta cell differentiation-related genes, order among STAT3 inhibitors [2]: significantly increased in the order of CPT <JSI-124<BP-1-102
mRNA expression of insulin compared to treatment only with glucosamine, putrescine, and nicotinamide [2]: ≥ 3 fold

C[C@H]1COC2=C1C(=O)C(=O)c1c2ccc2c1CCCC2(C)C [CPT]
mRNA expression levels of insulin and beta cell differentiation-related genes, order among STAT3 inhibitors [2, 3]: significantly increased in the order of CPT <JSI-124<BP-1-102

CC(C)(O)/C=C/C(=O)[C@](C)(O)C1[C@H](O)C[C@@]2(C)[C@@H]3CC=C4C(C=C(O)C(=O)C4(C)C)[C@]3(C)C(=O)C[C@]12C (stereo partly drawn) [JSI-124]
mRNA expression levels of insulin (INS) and beta cell differentiation-related genes (PDX1, NEUROG3, or NEUROD1) (mouse bone marrow cells; 100 nM added on day 4 after the culture, compared to treatment at other time points (day 0, 2)): significantly increased
expression levels of genes promoting differentiation into insulin-producing cells (mouse bone marrow cells; STAT3 inhibitor 100 nM added on day 0, 2 or 4 to glucosamine, putrescine and nicotinamide in CMRL 1066, collected day 6): increased
mRNA expression levels of insulin and beta cell differentiation-related genes, order among STAT3 inhibitors [2, 3]: significantly increased in the order of CPT <JSI-124<BP-1-102

N[C@H]1C(O)O[C@H](CO)[C@@H](O)[C@@H]1O (stereo partly drawn) [glucosamine]
insulin expression compared to the control (mouse bone marrow cells): 2 fold

NCCCCN [putrescine, 1,4-diaminobutane]
mRNA expression of insulin (INS), MAFA, PDX1, and NEUROG3 (human bone marrow cells): significantly increased
insulin expression compared to the control (mouse bone marrow cells): 4.3 fold
mRNA expression of beta cell-specific genes (INS, MAFA, and NEUROG3) ([2]; 5 mM putrescine, 6 days, DMEM, compared to control cells without putrescine): significantly increased
gene expression levels for insulin and the factors that promote the beta cell differentiation ([2]; putrescine at a concentration of 5 mM or more (0.1 to 20 mM tested), 6 days): significantly increased
